In patent US20120258990A1 (priority 2009, published 2012):

Test system: Plasmopara viticola
Test: Plasmopara viticola/Grape/Curative (Grape Downy Mildew)
Assay type: in vivo
Details: 200 ppm; grape seedlings cv. Gutedel, inoculated one day before application, assessed 4-6 days after application
Method: Plasmopara viticola/Grape/Curative (Grape Downy Mildew)
5-week-old grape seedlings cv. Gutedel are inoculated by spraying a sporangia suspension on their lower leaf surface one day before application. The inoculated grape plants are sprayed in a spray chamber with the formulated test compound diluted in water. The inoculated test plants are incubated at 22° C. and 100% rh in a greenhouse and the percentage leaf area covered by disease is assessed when an appropriate level of disease appears on untreated check plants (4-6 days after application).

Cc1cc(C(F)(F)F)nn1CC(=O)N(C)CCCc1nc(C(=O)N(C)[C@@H]2CCCc3ccccc32)cs1 [Compound I.d.55, 2-(3-{methyl-[2-(5-methyl-3-trifluoromethyl-pyrazol-1-yl)-acetyl]-amino}-propyl)-thiazole-4-carboxylic acid methyl-(R)-1,2,3,4-tetrahydro-naphthalen-1-yl-amide]
disease control: at least 80%
